Measured values published in ChEMBL document CHEMBL2311324, “Inhibitors of HIV-1 attachment. Part 10. The discovery and structure-activity relationships of 4-azaindole cores” (Bioorg Med Chem Lett, 2013).

Legend:
[1] = Cytotoxicity against human HeLa cells expressing CD4, CCR5 after 3 days; assay type: cell-based; settings: HeLa cells expressing CD4 and CCR5
[2] = test system: Human immunodeficiency virus 1; assay: Antiviral activity against HIV1 JR-FL in human HeLa cells expressing CD4, CCR5 assessed as inhibition of integration of viral DNA into cell genome after 3 days by luciferase reporter gene assay; assay type: functional, organism-based; settings: Human immunodeficiency virus 1, JR-FL, 72 h
[3] = test system: Rattus norvegicus; assay: Oral bioavailability in rat at 5 mg/kg; assay type: ADME, organism-based; settings: in vivo
[4] = test system: Rattus norvegicus; assay: AUC in rat at 5 mg/kg, po; assay type: ADME, organism-based, Plasma; parameters: dose 5 mg/kg, route oral; settings: in vivo

SMILES | CC50 at 72 h [1] [nM] | EC50 [2] [nM] | F [3] [%] | AUC [4] [µM·h]
Cc1cnc(-c2ccnc3c(C(=O)C(=O)N4CCN(C(=O)c5ccccc5)CC4)c[nH]c23)s1 | 251000 | 0.52 |  | 
Cc1csc(-c2ccnc3c(C(=O)C(=O)N4CCN(C(=O)c5ccccc5)C[C@H]4C)c[nH]c23)c1 | 48900 | 0.04 |  | 
Cc1csc(-c2ccnc3c(C(=O)C(=O)N4CCN(C(=O)c5ccccc5)[C@H](C)C4)c[nH]c23)n1 | 30000 | 0.19 |  | 
COc1ccnc2c(C(=O)C(=O)N3CCN(C(=O)c4ccccc4)C[C@H]3C)c[nH]c12 | > 300000 | 0.63 |  | 
O=C(C(=O)N1CCN(C(=O)c2ccccc2)CC1)c1c[nH]c2c(-n3cncn3)ccnc12 | > 300000 | 0.64 |  | 
O=C(C(=O)N1CCN(C(=O)c2ccccc2)CC1)c1c[nH]c2c(-c3cnccn3)ccnc12 | > 300000 | 1.71 |  | 
C[C@@H]1CN(C(=O)c2ccccc2)CCN1C(=O)C(=O)c1c[nH]c2c(-c3cc4ccccc4s3)ccnc12 | 170000 | 0.1 |  | 
COc1ccnc2c(C(=O)C(=O)N3CCN(C(=O)c4ccccc4)CC3)c[nH]c12 | > 300000 | 12.3 |  | 
O=C(C(=O)N1CCN(C(=O)c2ccccc2)CC1)c1c[nH]c2c(Cl)ccnc12 | > 300000 | 18.4 |  | 
Cc1csc(-c2ccnc3c(C(=O)C(=O)N4CCN(C(=O)c5ccccc5)[C@H](C)C4)c[nH]c23)c1 | 123000 | 0.21 |  | 
C[C@@H]1CN(C(=O)c2ccccc2)CCN1C(=O)C(=O)c1c[nH]c2c(-c3ncco3)ccnc12 | > 300000 | 0.18 |  | 
C[C@@H]1CN(C(=O)c2ccccc2)CCN1C(=O)C(=O)c1c[nH]c2cnccc12 | > 300000 | 22 |  | 
C[C@@H]1CN(C(=O)c2ccccc2)CCN1C(=O)C(=O)c1c[nH]c2c(-c3nccs3)ccnc12 | > 300000 | 0.1 |  | 
COc1cccc(-c2ccnc3c(C(=O)C(=O)N4CCN(C(=O)c5ccccc5)CC4)c[nH]c23)n1 | 174000 | 7.4 |  | 
C[C@@H]1CN(C(=O)c2ccccc2)CCN1C(=O)C(=O)c1c[nH]c2c(-c3cnccn3)ccnc12 | 15300 | 0.27 |  | 
C[C@@H]1CN(C(=O)c2ccccc2)CCN1C(=O)C(=O)c1c[nH]c2cccnc12 | > 300000 | 1.6 |  | 
C[C@@H]1CN(C(=O)C(=O)c2c[nH]c3c(-c4nccs4)ccnc23)CCN1C(=O)c1ccccc1 | 35000 | 0.31 | 41 | 1.3
C[C@@H]1CN(C(=O)c2ccccc2)CCN1C(=O)C(=O)c1c[nH]c2ccncc12 | > 300000 | 580 |  | 
O=C(C(=O)N1CCN(C(=O)c2ccccc2)CC1)c1c[nH]c2c(-c3ncco3)ccnc12 | > 300000 | 0.39 |  | 

SMILES | CC50 at 72 h [1] [nM] | EC50 [2] [nM] | F [3] [%] | AUC [4] [µM·h]
O=C(C(=O)N1CCN(C(=O)c2ccccc2)CC1)c1c[nH]c2c(-c3cncs3)ccnc12 | > 300000 | 0.09 |  | 
O=C(C(=O)N1CCN(C(=O)c2ccccc2)CC1)c1c[nH]c2c(-n3nc4ccccc4n3)ccnc12 | 124000 | 0.21 |  | 
C[C@@H]1CN(C(=O)c2ccccc2)CCN1C(=O)C(=O)c1c[nH]c2c(C(=O)Nc3nccs3)ccnc12 | > 300000 | 0.43 |  | 
O=C(C(=O)N1CCN(C(=O)c2ccccc2)CC1)c1c[nH]c2c(-n3nnc4ccccc43)ccnc12 | 246000 | 23.6 |  | 
C[C@@H]1CN(C(=O)c2ccccc2)CCN1C(=O)C(=O)c1c[nH]c2c(-c3cccs3)ccnc12 | > 300000 | 0.02 |  | 
C[C@@H]1CN(C(=O)C(=O)c2c[nH]c3c(-c4cccs4)ccnc23)CCN1C(=O)c1ccccc1 | 168000 | 0.24 |  | 
CON(C)C(=O)c1ccnc2c(C(=O)C(=O)N3CCN(C(=O)c4ccccc4)C[C@H]3C)c[nH]c12 | > 300000 | 61.1 |  | 
C[C@@H]1CN(C(=O)C(=O)c2c[nH]c3c(Cl)ccnc23)CCN1C(=O)c1ccccc1 | 300000 | 11.6 |  | 
Cc1csc(NC(=O)c2ccnc3c(C(=O)C(=O)N4CCN(C(=O)c5ccccc5)C[C@H]4C)c[nH]c23)n1 | > 300000 | 3.4 |  | 
Cc1csc(-c2ccnc3c(C(=O)C(=O)N4CCN(C(=O)c5ccccc5)CC4)c[nH]c23)n1 | 23000 | 0.2 |  | 
O=C(C(=O)N1CCN(C(=O)c2ccccc2)CC1)c1c[nH]c2c(-n3cccn3)ccnc12 | > 300000 | 0.89 |  | 
COc1cccc2[nH]cc(C(=O)C(=O)N3CCN(C(=O)c4ccccc4)C[C@H]3C)c12 | 250000 | 0.8 |  | 
CC(=O)c1ccc(-c2ccnc3c(C(=O)C(=O)N4CCN(C(=O)c5ccccc5)CC4)c[nH]c23)s1 | 268000 | 0.29 |  | 
C[C@@H]1CN(C(=O)C(=O)c2c[nH]c3c(-n4nc5ccccc5n4)ccnc23)CCN1C(=O)c1ccccc1 | 74000 | 0.31 |  | 
COc1ccc(-c2ccnc3c(C(=O)C(=O)N4CCN(C(=O)c5ccccc5)C[C@H]4C)c[nH]c23)cc1 | > 300000 | 0.32 |  | 
C[C@@H]1CN(C(=O)c2ccccc2)CCN1C(=O)C(=O)c1c[nH]c2c(-c3ccsc3)ccnc12 | 94500 | 0.18 |  | 
C[C@@H]1CN(C(=O)c2ccccc2)CCN1C(=O)C(=O)c1c[nH]c2c(C(=O)O)ccnc12 | > 300000 | 3.38 |  | 
Cc1cnc(-c2ccnc3c(C(=O)C(=O)N4CCN(C(=O)c5ccccc5)[C@H](C)C4)c[nH]c23)s1 | 28000 | 0.71 |  | 
C[C@@H]1CN(C(=O)c2ccccc2)CCN1C(=O)C(=O)c1c[nH]c2ccccc12 | 195000 | 4.9 |  | 

SMILES | CC50 at 72 h [1] [nM] | EC50 [2] [nM] | F [3] [%] | AUC [4] [µM·h]
Cc1ncn(-c2ccnc3c(C(=O)C(=O)N4CCN(C(=O)c5ccccc5)[C@H](C)C4)c[nH]c23)n1 | > 300000 | 0.59 |  | 
Cc1ncnn1-c1ccnc2c(C(=O)C(=O)N3CCN(C(=O)c4ccccc4)[C@H](C)C3)c[nH]c12 | > 300000 | 10.8 |  | 
O=C(C(=O)N1CCN(C(=O)c2ccccc2)CC1)c1c[nH]c2c(-n3nnc4cccnc43)ccnc12 | > 300000 | 10.6 |  | 
Cc1ccn(-c2ccnc3c(C(=O)C(=O)N4CCN(C(=O)c5ccccc5)[C@H](C)C4)c[nH]c23)n1 | 300000 | 0.46 |  | 
Cc1ccnc2c(C(=O)C(=O)N3CCN(C(=O)c4ccccc4)CC3)c[nH]c12 | > 300000 | 46.3 |  | 
O=C(C(=O)N1CCN(C(=O)c2ccccc2)CC1)c1c[nH]c2c(-n3ccnn3)ccnc12 | > 300000 | 0.88 |  | 
COc1cncc2[nH]cc(C(=O)C(=O)N3CCN(C(=O)c4ccccc4)C[C@H]3C)c12 | 6000 | 1.3 |  | 
Cc1noc(C)c1-c1ccnc2c(C(=O)C(=O)N3CCN(C(=O)c4ccccc4)C[C@H]3C)c[nH]c12 | > 300000 | 1.05 |  | 
Cc1cnn(-c2ccnc3c(C(=O)C(=O)N4CCN(C(=O)c5ccccc5)[C@H](C)C4)c[nH]c23)c1 | > 150000 | 1.59 |  | 
C[C@@H]1CN(C(=O)c2ccccc2)CCN1C(=O)C(=O)c1c[nH]c2c(Cl)ccnc12 | > 300000 | 1.22 |  | 
C[C@@H]1CN(C(=O)C(=O)c2c[nH]c3c(-n4nnc5ccccc54)ccnc23)CCN1C(=O)c1ccccc1 | 71000 | 5.34 |  | 
O=C(C(=O)N1CCN(C(=O)c2ccccc2)CC1)c1c[nH]c2c(-c3ccccn3)ccnc12 | 231000 | 0.93 |  | 
CNC(=O)c1ccnc2c(C(=O)C(=O)N3CCN(C(=O)c4ccccc4)C[C@H]3C)c[nH]c12 | > 300000 | 2.48 |  | 
C[C@@H]1CN(C(=O)c2ccccc2)CCN1C(=O)C(=O)c1c[nH]c2ncccc12 | 280000 | 1.7 |  | 
Cc1csc(-c2ccnc3c(C(=O)C(=O)N4CCN(C(=O)c5ccccc5)CC4)c[nH]c23)c1 | 85000 | 0.02 |  | 
O=C(C(=O)N1CCN(C(=O)c2ccccc2)CC1)c1c[nH]c2c(-c3nccs3)ccnc12 | 150000 | 0.21 |  | 
C[C@@H]1CN(C(=O)c2ccccc2)CCN1C(=O)C(=O)c1c[nH]c2c(-c3cncnc3)ccnc12 | 35300 | 0.68 |  | 
Cc1ccnc2c(C(=O)C(=O)N3CCN(C(=O)c4ccccc4)C[C@H]3C)c[nH]c12 | > 300000 | 3.06 |  | 
COc1ccnc2c(C(=O)C(=O)N3CCN(C(=O)c4ccccc4)C[C@H]3C)cn(C)c12 | > 300000 | 7.37 |  | 
